Results as given in PubChem BioAssay AID2060513 (Molecular Pharmacology Branch, DTP, NCI, 2025).

Tested on: 299254-011-R-J1-PDC complex spheroids viability
Experiment: Anticancer human tumor 299254-011-R-J1-PDC patient-derived melanoma cell line growth inhibition [GQUAD]
Settings: for IC50: curve of first compound; for viability, T/C: stronger effect = lower value
Method in brief: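 Viability of tumor cells grown as complex spheroids with endothelial and stromal cells, exposed to drug combinations. Top concentration at or near clinical Cmax (else 10 microM), diluted in half-log increments.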

[1] = second compound 0.0316 µM, first compound 0.0316 µM
[2] = second compound 0.0316 µM, first compound 0.1 µM
[3] = second compound 0.0316 µM, first compound 0.316 µM
[4] = second compound 0.0316 µM, first compound 1 µM
[5] = second compound 0.0316 µM, first compound 3.16 µM
[6] = second compound 0.0316 µM, first compound 10 µM
[7] = second compound 0.1 µM, first compound 0.0316 µM
[8] = second compound 0.1 µM, first compound 0.1 µM
[9] = second compound 0.1 µM, first compound 0.316 µM
[10] = second compound 0.1 µM, first compound 1 µM
[11] = second compound 0.1 µM, first compound 3.16 µM
[12] = second compound 0.1 µM, first compound 10 µM
[13] = second compound 0.316 µM, first compound 0.0316 µM
[14] = second compound 0.316 µM, first compound 0.1 µM
[15] = second compound 0.316 µM, first compound 0.316 µM
[16] = second compound 0.316 µM, first compound 1 µM
[17] = second compound 0.316 µM, first compound 3.16 µM
[18] = second compound 0.316 µM, first compound 10 µM
[19] = second compound 1 µM, first compound 0.0316 µM
[20] = second compound 1 µM, first compound 0.1 µM
[21] = second compound 1 µM, first compound 0.316 µM
[22] = second compound 1 µM, first compound 1 µM
[23] = second compound 1 µM, first compound 3.16 µM
[24] = second compound 1 µM, first compound 10 µM
[25] = second compound 3.16 µM, first compound 0.0316 µM
[26] = second compound 3.16 µM, first compound 0.1 µM
[27] = second compound 3.16 µM, first compound 0.316 µM
[28] = second compound 3.16 µM, first compound 1 µM
[29] = second compound 3.16 µM, first compound 3.16 µM
[30] = second compound 3.16 µM, first compound 10 µM
[31] = second compound 10 µM, first compound 0.0316 µM
[32] = second compound 10 µM, first compound 0.1 µM
[33] = second compound 10 µM, first compound 0.316 µM
[34] = second compound 10 µM, first compound 1 µM
[35] = second compound 10 µM, first compound 3.16 µM
[36] = second compound 10 µM, first compound 10 µM
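Also: spheroids exposed to the agents for seven days before readout.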
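For viability, T/C in this document: percent viability relative to DMSO vehicle control wells = 100%.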

**Q.** Which results are given for COc1ncnc(C2CC2)c1-c1ncc2cnn(Cc3ccc(-c4nc(C(F)(F)F)cn4C(C)C)cc3)c2n1 + Cc1[nH]c2ccc(F)cc2c1-c1nc2c3cccnc3c3ncccc3c2[nH]1?
**A.** IC50 (second compound 0.0316 µM): > 10000 nM; IC50 (second compound 0.1 µM): > 10000 nM; IC50 (second compound 0.316 µM): > 10000 nM; IC50 (second compound 1 µM): > 10000 nM; IC50 (second compound 3.16 µM): > 10000 nM; IC50 (second compound 10 µM): > 10000 nM; viability, T/C [1]: 106%; viability, T/C [2]: 98.9%; viability, T/C [3]: 101%; viability, T/C [4]: 100%; viability, T/C [5]: 107%; viability, T/C [6]: 100%; viability, T/C [7]: 120%; viability, T/C [8]: 96.1%; viability, T/C [9]: 110%; viability, T/C [10]: 104%; viability, T/C [11]: 111%; viability, T/C [12]: 83.5%; viability, T/C [13]: 105%; viability, T/C [14]: 107%; viability, T/C [15]: 98.7%; viability, T/C [16]: 92%; viability, T/C [17]: 92.9%; viability, T/C [18]: 84.6%; viability, T/C [19]: 129%; viability, T/C [20]: 107%; viability, T/C [21]: 102%; viability, T/C [22]: 94.2%; viability, T/C [23]: 103%; viability, T/C [24]: 112%; viability, T/C [25]: 104%; viability, T/C [26]: 113%; viability, T/C [27]: 108%; viability, T/C [28]: 88.6%; viability, T/C [29]: 99.8%; viability, T/C [30]: 106%; viability, T/C [31]: 91%; viability, T/C [32]: 100%; viability, T/C [33]: 108%; viability, T/C [34]: 114%; viability, T/C [35]: 106%; viability, T/C [36]: 81.8%

**Q.** What does the source list for CC1COCCN1c1cc(C2(O)CC3CCC(C2)O3)c2cnn(-c3ccn[nH]3)c2n1 (stereo not drawn) + Cc1cnc(CNC(=O)c2c(=O)c3ccc(N4CCCN(C)CC4)nc3n3c2sc2ccccc23)cn1?
**A.** IC50 (second compound 0.0316 µM): 89.3 nM; IC50 (second compound 0.1 µM): 104 nM; IC50 (second compound 0.316 µM): < 31.6 nM; IC50 (second compound 1 µM): < 31.6 nM; IC50 (second compound 3.16 µM): < 31.6 nM; IC50 (second compound 10 µM): < 31.6 nM; viability, T/C [1]: 94.4%; viability, T/C [2]: 41.6%; viability, T/C [3]: 28.7%; viability, T/C [4]: 11.4%; viability, T/C [5]: 13%; viability, T/C [6]: 3.95%; viability, T/C [7]: 58.6%; viability, T/C [8]: 51.5%; viability, T/C [9]: 18.6%; viability, T/C [10]: 14.1%; viability, T/C [11]: 9.97%; viability, T/C [12]: 4.33%; viability, T/C [13]: 31.4%; viability, T/C [14]: 32%; viability, T/C [15]: 14.3%; viability, T/C [16]: 15.9%; viability, T/C [17]: 11%; viability, T/C [18]: 4.06%; viability, T/C [19]: 22.3%; viability, T/C [20]: 21%; viability, T/C [21]: 17.1%; viability, T/C [22]: 12.8%; viability, T/C [23]: 14.8%; viability, T/C [24]: 6.33%; viability, T/C [25]: 18.8%; viability, T/C [26]: 22.3%; viability, T/C [27]: 17.1%; viability, T/C [28]: 10.6%; viability, T/C [29]: 13.1%; viability, T/C [30]: 7.02%; viability, T/C [31]: 0.16%; viability, T/C [32]: 0.22%; viability, T/C [33]: 0.23%; viability, T/C [34]: 0.17%; viability, T/C [35]: 0.29%; viability, T/C [36]: 0.23%

**Q.** What does the source list for CC1COCCN1c1cc(C2(S(C)(=N)=O)CC2)nc(-c2ccnc3[nH]ccc23)n1 (stereo not drawn) + Cc1cnc(CNC(=O)c2c(=O)c3ccc(N4CCCN(C)CC4)nc3n3c2sc2ccccc23)cn1?
**A.** IC50 (second compound 0.0316 µM): 1650 nM; IC50 (second compound 0.1 µM): 2480 nM; IC50 (second compound 0.316 µM): 1680 nM; IC50 (second compound 1 µM): 524 nM; IC50 (second compound 3.16 µM): 517 nM; IC50 (second compound 10 µM): < 31.6 nM; viability, T/C [1]: 93%; viability, T/C [2]: 89.9%; viability, T/C [3]: 76.7%; viability, T/C [4]: 61.8%; viability, T/C [5]: 36%; viability, T/C [6]: 22%; viability, T/C [7]: 80.8%; viability, T/C [8]: 95.6%; viability, T/C [9]: 78.9%; viability, T/C [10]: 79.4%; viability, T/C [11]: 42.2%; viability, T/C [12]: 18.7%; viability, T/C [13]: 80.6%; viability, T/C [14]: 97.1%; viability, T/C [15]: 96.7%; viability, T/C [16]: 69.8%; viability, T/C [17]: 25.7%; viability, T/C [18]: 15.6%; viability, T/C [19]: 71.9%; viability, T/C [20]: 83.1%; viability, T/C [21]: 48.7%; viability, T/C [22]: 44.1%; viability, T/C [23]: 24.4%; viability, T/C [24]: 17.1%; viability, T/C [25]: 76.3%; viability, T/C [26]: 72.3%; viability, T/C [27]: 63.7%; viability, T/C [28]: 31.9%; viability, T/C [29]: 22.8%; viability, T/C [30]: 19.1%; viability, T/C [31]: 0.39%; viability, T/C [32]: 19.2%; viability, T/C [33]: 44.1%; viability, T/C [34]: 26.4%; viability, T/C [35]: 0.34%; viability, T/C [36]: 0.27%

**Q.** For Cc1cccc(N(C)C(=O)C2C(O)CCN2c2nc(C)cc(C(F)(F)F)c2C#N)c1 (stereo not drawn) + Cc1cnc(CNC(=O)c2c(=O)c3ccc(N4CCCN(C)CC4)nc3n3c2sc2ccccc23)cn1, which IC50 (second compound 0.0316 µM) is on record?
**A.** Its IC50 is > 10000 nM.

**Q.** And the IC50 (second compound 0.1 µM)?
**A.** Its IC50 is > 10000 nM.

**Q.** And the IC50 (second compound 0.316 µM)?
**A.** Its IC50 is > 10000 nM.

**Q.** What about the IC50 (second compound 1 µM) of the same compound?
**A.** The IC50 was > 10000 nM.

**Q.** And the IC50 (second compound 3.16 µM)?
**A.** The IC50 was > 10000 nM.

**Q.** And the IC50 (second compound 10 µM)?
**A.** The IC50 was > 10000 nM.

**Q.** And the viability, T/C [1]?
**A.** The viability, T/C was 120%.

**Q.** What about the viability, T/C [2] of the same compound?
**A.** Its viability, T/C is 115%.

**Q.** What about the viability, T/C [3] of the same compound?
**A.** Its viability, T/C is 117%.

**Q.** What about the viability, T/C [4] of the same compound?
**A.** The viability, T/C was 89.3%.

**Q.** What about the viability, T/C [5] of the same compound?
**A.** Its viability, T/C is 87.6%.

**Q.** What about the viability, T/C [6] of the same compound?
**A.** Its viability, T/C is 112%.

**Q.** What about the viability, T/C [7] of the same compound?
**A.** Its viability, T/C is 88.9%.

**Q.** And the viability, T/C [8]?
**A.** Its viability, T/C is 112%.

**Q.** And the viability, T/C [9]?
**A.** Its viability, T/C is 95.6%.

**Q.** What about the viability, T/C [10] of the same compound?
**A.** Its viability, T/C is 92.9%.

**Q.** And the viability, T/C [11]?
**A.** Its viability, T/C is 120%.

**Q.** And the viability, T/C [12]?
**A.** The viability, T/C was 100%.

**Q.** What about the viability, T/C [13] of the same compound?
**A.** The viability, T/C was 94.3%.

**Q.** What about the viability, T/C [14] of the same compound?
**A.** Its viability, T/C is 96.5%.

**Q.** What about the viability, T/C [15] of the same compound?
**A.** Its viability, T/C is 93.2%.

**Q.** And the viability, T/C [16]?
**A.** The viability, T/C was 93.8%.

**Q.** And the viability, T/C [17]?
**A.** The viability, T/C was 107%.

**Q.** What about the viability, T/C [18] of the same compound?
**A.** Its viability, T/C is 114%.

**Q.** What about the viability, T/C [19] of the same compound?
**A.** The viability, T/C was 91.8%.

**Q.** And the viability, T/C [20]?
**A.** Its viability, T/C is 94%.

**Q.** And the viability, T/C [21]?
**A.** The viability, T/C was 103%.

**Q.** What about the viability, T/C [22] of the same compound?
**A.** The viability, T/C was 85.9%.

**Q.** What about the viability, T/C [23] of the same compound?
**A.** Its viability, T/C is 92.1%.

**Q.** And the viability, T/C [24]?
**A.** The viability, T/C was 83.5%.

**Q.** What about the viability, T/C [25] of the same compound?
**A.** Its viability, T/C is 71.9%.

**Q.** And the viability, T/C [26]?
**A.** Its viability, T/C is 75.2%.

**Q.** And the viability, T/C [27]?
**A.** Its viability, T/C is 95.3%.

**Q.** What about the viability, T/C [28] of the same compound?
**A.** Its viability, T/C is 85.8%.

**Q.** What about the viability, T/C [29] of the same compound?
**A.** The viability, T/C was 86.5%.

**Q.** What about the viability, T/C [30] of the same compound?
**A.** The viability, T/C was 85.5%.

**Q.** And the viability, T/C [31]?
**A.** The viability, T/C was 82%.

**Q.** And the viability, T/C [32]?
**A.** Its viability, T/C is 71.9%.

**Q.** And the viability, T/C [33]?
**A.** Its viability, T/C is 64.8%.

**Q.** And the viability, T/C [34]?
**A.** The viability, T/C was 84.4%.

**Q.** And the viability, T/C [35]?
**A.** Its viability, T/C is 63.5%.

**Q.** What about the viability, T/C [36] of the same compound?
**A.** Its viability, T/C is 52%.
